Assay results: the supplement of paper PMC10307832

Tests used:
Test in all cases: relative viability (nuclei count vs DMSO), 5 days (fraction); higher = more cells survive
[1] = compound: COc1cc2nc(N3CCCN(C)CC3)nc(NC3CCN(Cc4ccccc4)CC3)c2cc1OC + Nc1nc2[nH]cc(CCc3ccc(C(=O)N[C@@H](CCC(=O)O)C(=O)O)cc3)c2c(=O)[nH]1 [Pemetrexed] (partner 0.2 µM)
Summary of the method: (§1)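 One day after seeding in 1536-well plates, lung cancer cell lines were dosed by pin tool. Dosing was either single-drug or a fixed anchor-drug dose plus five library-drug doses (not always all listed) in √10 steps. After 5 days, nuclei were stained in one fix-and-stain step and counted on 4× images, and relative viability is the nuclei count of treated wells over that of vehicle wells, given as the median of duplicate plates.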

[2] = compound: Cc1cc([C@@H](C)Nc2ccccc2C(=O)O)c2nc(N3CCOCC3)cc(=O)n2c1 [AZD6482] + COc1cccc2cc(-c3nc([C@H]4CC[C@H](C(=O)O)CC4)n4ncnc(N)c34)[nH]c12 [OSI-027] (partner 0.5 µM)
Summary of the method: as §1

[3] = compound: Cc1cc([C@@H](C)Nc2ccccc2C(=O)O)c2nc(N3CCOCC3)cc(=O)n2c1 [AZD6482] + Nc1ncn([C@H]2C[C@H](O)[C@@H](CO)O2)c(=O)n1 [Decitabine] (partner 2 µM)
Summary of the method: as §1

[4] = compound: Cc1cc([C@@H](C)Nc2ccccc2C(=O)O)c2nc(N3CCOCC3)cc(=O)n2c1 [AZD6482] + O=C(c1cc(Cc2n[nH]c(=O)c3ccccc23)ccc1F)N1CCN(C(=O)C2CC2)CC1 [Olaparib] (partner 8 µM)
Summary of the method: as §1

Cell Line	relative viability ([1]; first compound 0.2 µM)	relative viability ([1]; first compound 0.6325 µM)	relative viability ([1]; first compound 2 µM)	relative viability ([1]; first compound 6.325 µM)	relative viability ([2]; first compound 0.253 µM)	relative viability ([2]; first compound 0.8 µM)	relative viability ([2]; first compound 2.53 µM)	relative viability ([2]; first compound 8 µM)	relative viability ([3]; first compound 0.253 µM)	relative viability ([3]; first compound 0.8 µM)	relative viability ([3]; first compound 2.53 µM)	relative viability ([3]; first compound 8 µM)	relative viability ([4]; first compound 0.253 µM)	relative viability ([4]; first compound 0.8 µM)	relative viability ([4]; first compound 2.53 µM)	relative viability ([4]; first compound 8 µM)	relative viability ([2]; first compound 0.08 µM)	relative viability ([3]; first compound 0.08 µM)	relative viability ([4]; first compound 0.08 µM)
SK-LU-1	0.952	0.949	1.03	0.889	0.319	0.347	0.246	0.214	0.567	0.627	0.549	0.425	0.452	0.474	0.405	0.359			
ChaGo-K-1	0.255	0.256	0.262	0.264	0.323	0.539	0.477	0.49	0.494	0.489	0.481	0.534	0.436	0.42	0.431	0.4	0.634	0.502	0.399
COR-L 105	1.08	1.22	1.15	0.798	0.742	0.577	0.33	0.517	0.68	0.628	0.601	0.559	0.851	0.726	0.549	0.687	0.75	0.67	0.607
NCI-H1975	0.289	0.301	0.309	0.267	0.616	0.779	0.495	0.427	0.392	0.385	0.354	0.345	0.832	0.964	0.648	0.624	0.631	0.351	0.661
NCI-H1993	0.602	0.644	0.579	0.549	0.521	0.516	0.529	0.534	0.481	0.598	0.436	0.458	0.997	0.95	0.563	0.665	0.502	0.526	0.881
RERF-LC-KJ	0.419	0.455	0.464	0.447	0.496	0.458	0.497	0.399	0.78	0.601	0.592	0.665	0.963	0.886	0.963	0.667	0.547	0.722	0.787
NCI-H23	0.66	0.695	0.918	0.703	0.512	0.592	0.364	0.302	0.288	0.32	0.312	0.304	0.371	0.411	0.266	0.247	0.592	0.309	0.26
HCC-366	0.186	0.151	0.171	0.164	0.801	0.906	0.574	0.515	0.302	0.313	0.304	0.345	0.342	0.433	0.259	0.282	1.01	0.309	0.328
EMC-BAC-2	0.437	0.402	0.413	0.486	0.376	0.347	0.273	0.316	0.956	0.994	0.778	0.908	0.479	0.523	0.471	0.44	0.394	0.938	0.455
NCI-H2405	1.02	1.12	1.11	1.05		0.595	0.369	0.336	0.666	0.732	0.447	0.541	0.861	0.929	0.541	0.677	0.46	0.641	0.599
NCI-H358	0.174	0.168	0.17	0.173	0.557	0.662	0.257	0.312	0.218	0.237	0.185	0.189	0.554	0.624	0.282	0.52	0.711	0.246	0.535
NCI-H1944	0.598	0.684	0.566	0.587	0.417	0.428	0.249	0.301	0.37	0.521	0.446	0.435	0.443	0.428	0.337	0.388	0.389	0.446	0.399
NCI-H1648		0.904		0.791	0.268	0.245	0.228	0.276	0.453	0.472		0.48	0.823	0.715		0.638	0.297	0.502	0.575
EPLC-272H	0.335	0.403	0.397	0.365	0.235	0.345	0.214	0.255	0.325	0.321	0.216	0.341	0.681	0.687	0.463	0.294	0.29	0.313	0.567
NCI-H1915	0.48	0.442	0.503	0.463	0.57	0.689	0.505	0.595	0.255	0.263	0.247	0.23	0.268	0.276	0.236	0.258	0.575	0.278	0.266
NCI-H596	0.515	0.534	0.503	0.468	0.596	0.809	0.732	0.559	0.937	0.972	1.01	0.946	0.68	1.01	0.737	0.598	0.676	0.865	0.596
NCI-H322M	0.606	0.623	0.581	0.584	0.497	0.531	0.317	0.414	0.617	0.674	0.537	0.603	0.761	0.749	0.494	0.701	0.523	0.657	0.671
